From the supplement of paper PMC8671470

Tested on: KG-1
Conditions: 72 h
How it was run: (§1)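 The IC50 was read from log-logistic dose–response fits. Fifteen myeloid leukaemia lines were exposed for 72 h at 37 °C with 5% CO2 to five tenfold doses from 1 to 10,000 nM in duplicate. ATP luminescence, normalised to vehicle and to a 10 µM positive control, was fitted with four parameters.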

`O=C(O)CC[N+](=O)[O-]` [3-nitropropionic acid] and `C=CC(=O)c1ccc(O)cc1` [4-Acryloylphenol] cannot be ordered by “IC50 (cell viability)” value: over 10 µM for the first, over 10 µM for the second.

`Cc1[nH]nc(C(F)(F)F)c1Cc1sc2c(c1C(=O)N1C[C@](C)(O)CO1)c(=O)n(C)c(=O)n2C(C)C` [AZD3965] and `O=c1cc(-c2ccccc2)oc2c1ccc1ccccc12` [Alpha-Naphtoflavone] cannot be ordered by “IC50 (cell viability)” value: over 10 µM for the first, over 10 µM for the second.

Tested on: KU-812
Conditions: 72 h
How it was run: as §1

`CN(CCCOc1ccc(Cc2ccccc2)cc1)CCC(=O)O` and `Cc1nc(-c2ccccc2)sc1C(=O)Nc1ccc(S(N)(=O)=O)cc1` cannot be ordered by “IC50 (cell viability)” value: over 10 µM for the first, over 10 µM for the second.

`Cc1c2c(=O)n(-c3ccccc3Cl)[nH]c2cc(=O)n1Cc1ccccn1` and `O=c1cc(-c2ccccc2)oc2c1ccc1ccccc12` [Alpha-Naphtoflavone] cannot be ordered by “IC50 (cell viability)” value: over 10 µM for the first, over 10 µM for the second.

Compared with `COc1ccc2c(NC(=O)Nc3cccc(C(F)(F)F)n3)ccnc2c1`, `Cn1cc(-c2ccncc2)c(-c2ccc(OCc3ccc4ccccc4n3)cc2)n1` is lower in “IC50 (cell viability)” value: over 10 µM for the first, 8.42 µM for the second.

Compared with `O=c1cc(N2CCOCC2)oc2c(-c3ccccc3)cccc12`, `O=C1C(SCCO)=C(SCCO)C(=O)c2ccccc21` is lower in “IC50 (cell viability)” value: over 10 µM for the first, 0.53 µM for the second.

Going from `O=C(O)CC[N+](=O)[O-]` [3-nitropropionic acid] to `C=CC(=O)c1ccc(O)cc1` [4-Acryloylphenol], the “IC50 (cell viability)” value falls from over 10 µM to 7.96 µM.

For `Cc1[nH]nc(C(F)(F)F)c1Cc1sc2c(c1C(=O)N1C[C@](C)(O)CO1)c(=O)n(C)c(=O)n2C(C)C` [AZD3965], the “IC50 (cell viability)” value was over 10 µM.

Tested on: LAMA-84
Conditions: 72 h
How it was run: as §1

`CN(CCCOc1ccc(Cc2ccccc2)cc1)CCC(=O)O` and `Cc1nc(-c2ccccc2)sc1C(=O)Nc1ccc(S(N)(=O)=O)cc1` cannot be ordered by “IC50 (cell viability)” value: over 10 µM for the first, over 10 µM for the second.

`Cc1c2c(=O)n(-c3ccccc3Cl)[nH]c2cc(=O)n1Cc1ccccn1` and `O=c1cc(-c2ccccc2)oc2c1ccc1ccccc12` [Alpha-Naphtoflavone] cannot be ordered by “IC50 (cell viability)” value: over 10 µM for the first, over 10 µM for the second.

`COc1ccc2c(NC(=O)Nc3cccc(C(F)(F)F)n3)ccnc2c1` and `Cn1cc(-c2ccncc2)c(-c2ccc(OCc3ccc4ccccc4n3)cc2)n1` cannot be ordered by “IC50 (cell viability)” value: over 10 µM for the first, over 10 µM for the second.

Compared with `O=c1cc(N2CCOCC2)oc2c(-c3ccccc3)cccc12`, `O=C1C(SCCO)=C(SCCO)C(=O)c2ccccc21` is lower in “IC50 (cell viability)” value: over 10 µM for the first, 0.747 µM for the second.

`O=C(O)CC[N+](=O)[O-]` [3-nitropropionic acid] and `C=CC(=O)c1ccc(O)cc1` [4-Acryloylphenol] cannot be ordered by “IC50 (cell viability)” value: over 10 µM for the first, over 10 µM for the second.

In the case of `Cc1[nH]nc(C(F)(F)F)c1Cc1sc2c(c1C(=O)N1C[C@](C)(O)CO1)c(=O)n(C)c(=O)n2C(C)C` [AZD3965], the “IC50 (cell viability)” value was over 10 µM.

Tested on: ML-2
Conditions: 72 h
How it was run: as §1

`CN(CCCOc1ccc(Cc2ccccc2)cc1)CCC(=O)O` and `Cc1nc(-c2ccccc2)sc1C(=O)Nc1ccc(S(N)(=O)=O)cc1` cannot be ordered by “IC50 (cell viability)” value: over 10 µM for the first, over 10 µM for the second.

`Cc1c2c(=O)n(-c3ccccc3Cl)[nH]c2cc(=O)n1Cc1ccccn1` and `O=c1cc(-c2ccccc2)oc2c1ccc1ccccc12` [Alpha-Naphtoflavone] cannot be ordered by “IC50 (cell viability)” value: over 10 µM for the first, over 10 µM for the second.

`COc1ccc2c(NC(=O)Nc3cccc(C(F)(F)F)n3)ccnc2c1` and `Cn1cc(-c2ccncc2)c(-c2ccc(OCc3ccc4ccccc4n3)cc2)n1` cannot be ordered by “IC50 (cell viability)” value: over 10 µM for the first, over 10 µM for the second.

Compared with `O=c1cc(N2CCOCC2)oc2c(-c3ccccc3)cccc12`, `O=C1C(SCCO)=C(SCCO)C(=O)c2ccccc21` is 9.4-fold higher in “IC50 (cell viability)” value: 0.0328 µM for the first, 0.307 µM for the second.

First: O=C(O)CC[N+](=O)[O-] [3-nitropropionic acid]
Second: C=CC(=O)c1ccc(O)cc1 [4-Acryloylphenol]
The “IC50 (cell viability)” value of the first is higher: over 10 µM for the first, 9.62 µM for the second.

In the case of `Cc1[nH]nc(C(F)(F)F)c1Cc1sc2c(c1C(=O)N1C[C@](C)(O)CO1)c(=O)n(C)c(=O)n2C(C)C` [AZD3965], the “IC50 (cell viability)” value was over 10 µM.

Tested on: MOLM-13
Conditions: 72 h
How it was run: as §1

`CN(CCCOc1ccc(Cc2ccccc2)cc1)CCC(=O)O` and `Cc1nc(-c2ccccc2)sc1C(=O)Nc1ccc(S(N)(=O)=O)cc1` cannot be ordered by “IC50 (cell viability)” value: over 10 µM for the first, over 10 µM for the second.

First: Cc1c2c(=O)n(-c3ccccc3Cl)[nH]c2cc(=O)n1Cc1ccccn1
Second: O=c1cc(-c2ccccc2)oc2c1ccc1ccccc12 [Alpha-Naphtoflavone]
The “IC50 (cell viability)” value of the first is lower: 2.76 µM for the first, over 10 µM for the second.

Compared with `COc1ccc2c(NC(=O)Nc3cccc(C(F)(F)F)n3)ccnc2c1`, `Cn1cc(-c2ccncc2)c(-c2ccc(OCc3ccc4ccccc4n3)cc2)n1` is 5.2-fold lower in “IC50 (cell viability)” value: 9.04 µM for the first, 1.74 µM for the second.

First: O=c1cc(N2CCOCC2)oc2c(-c3ccccc3)cccc12
Second: O=C1C(SCCO)=C(SCCO)C(=O)c2ccccc21
The “IC50 (cell viability)” value of the first is 2.1-fold lower: 0.185 µM for the first, 0.381 µM for the second.

Going from `O=C(O)CC[N+](=O)[O-]` [3-nitropropionic acid] to `C=CC(=O)c1ccc(O)cc1` [4-Acryloylphenol], the “IC50 (cell viability)” value rises from 2.87 µM to over 10 µM.

With `Cc1[nH]nc(C(F)(F)F)c1Cc1sc2c(c1C(=O)N1C[C@](C)(O)CO1)c(=O)n(C)c(=O)n2C(C)C` [AZD3965] the “IC50 (cell viability)” value was over 10 µM.

Tested on: MV4-11
Conditions: 72 h
How it was run: as §1

`CN(CCCOc1ccc(Cc2ccccc2)cc1)CCC(=O)O` and `Cc1nc(-c2ccccc2)sc1C(=O)Nc1ccc(S(N)(=O)=O)cc1` cannot be ordered by “IC50 (cell viability)” value: over 10 µM for the first, over 10 µM for the second.

First: Cc1c2c(=O)n(-c3ccccc3Cl)[nH]c2cc(=O)n1Cc1ccccn1
Second: O=c1cc(-c2ccccc2)oc2c1ccc1ccccc12 [Alpha-Naphtoflavone]
The “IC50 (cell viability)” value of the first is lower: 7.5 µM for the first, over 10 µM for the second.

First: COc1ccc2c(NC(=O)Nc3cccc(C(F)(F)F)n3)ccnc2c1
Second: Cn1cc(-c2ccncc2)c(-c2ccc(OCc3ccc4ccccc4n3)cc2)n1
The “IC50 (cell viability)” value of the first is higher: over 10 µM for the first, 2.09 µM for the second.

First: O=c1cc(N2CCOCC2)oc2c(-c3ccccc3)cccc12
Second: O=C1C(SCCO)=C(SCCO)C(=O)c2ccccc21
The “IC50 (cell viability)” value of the first is 5.6-fold lower: 0.0392 µM for the first, 0.219 µM for the second.

`O=C(O)CC[N+](=O)[O-]` [3-nitropropionic acid] and `C=CC(=O)c1ccc(O)cc1` [4-Acryloylphenol] are within 1.5-fold of each other in “IC50 (cell viability)” value: 3.17 µM for the first, 4.22 µM for the second.

With `Cc1[nH]nc(C(F)(F)F)c1Cc1sc2c(c1C(=O)N1C[C@](C)(O)CO1)c(=O)n(C)c(=O)n2C(C)C` [AZD3965] the “IC50 (cell viability)” value was over 10 µM.

Tested on: Mono-Mac-6
Conditions: 72 h
How it was run: as §1

`CN(CCCOc1ccc(Cc2ccccc2)cc1)CCC(=O)O` and `COc1ccc2c(NC(=O)Nc3cccc(C(F)(F)F)n3)ccnc2c1` cannot be ordered by “IC50 (cell viability)” value: over 10 µM for the first, over 10 µM for the second.

First: Cc1c2c(=O)n(-c3ccccc3Cl)[nH]c2cc(=O)n1Cc1ccccn1
Second: O=c1cc(N2CCOCC2)oc2c(-c3ccccc3)cccc12
The “IC50 (cell viability)” value of the first is higher: over 10 µM for the first, 3.75 µM for the second.
